The record followed here is patent EP2486923B1, “Histone deacetylase (HDAC) inhibiting compounds and method of making same” (Dr. Felix Jäger und Dr. Stefan Drinkuth Laborgemeinschaft …, priority 2011, dated 2012).

Like-named read-outs stand apart in the source and are kept apart here.

Common to all, as to test: Two-step fluorescence assay for determination of IC50
Format in all cases: biochemical

One assay concerns the target T1, HDAH (Alcaligenes sp., UniProt Q70I53).
T1 sequence (Q70I53 1-369): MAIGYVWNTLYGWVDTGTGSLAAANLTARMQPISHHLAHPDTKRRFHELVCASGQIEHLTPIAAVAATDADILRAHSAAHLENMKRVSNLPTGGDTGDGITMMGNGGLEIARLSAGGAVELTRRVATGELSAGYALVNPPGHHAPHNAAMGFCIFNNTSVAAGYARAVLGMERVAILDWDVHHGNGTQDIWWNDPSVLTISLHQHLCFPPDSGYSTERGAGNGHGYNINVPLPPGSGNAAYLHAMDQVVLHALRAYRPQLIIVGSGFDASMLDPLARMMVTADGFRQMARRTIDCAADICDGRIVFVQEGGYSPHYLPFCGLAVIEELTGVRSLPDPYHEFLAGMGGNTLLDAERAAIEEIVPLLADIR
As to the method:
(§1) In order to evaluate the inhibitory characteristics of example compounds of the invention, IC50 values were determined for such compounds. […] A two-step assay was used for this purpose.
(§2) To obtain the IC50 value for an individual compound/HDAC pair, a two-step assay can be performed based on a fluorescence signal. In principle, an ε-acetylated lysine substrate is deacetylated by histone-deacetylases in the first step. Trypsin releases detectable 7-amino-4-methylcoumarin (ex = excitation wavelength: 390 nm, em = emission wavelength: 460 nm) by cleaving the substrate at the deacetylated lysine in a subsequent reaction^[9]. The enzyme activity is inhibited by a suitable HDACi.
(§3) The obtained data are interpreted using a four parameter fit. Based on this fit, the IC50 value can be estimated. Analysis ot the data and calculation of the IC50 values was accomplished using a four-parameter logistic model protocol as previously described by Vølund^[16]. For nonlinear fits the Levenberg-Marquardt algorithm was applied^[17],[18]. […] Table 1: IC50 values in µM for synthesized compounds of the invention with a perfluorinated linker. […] HDAH = HDAC-like amidohydrolase

The next assay addresses T2, HDAC6 (Homo sapiens, UniProt Q9UBN7).
T2 sequence (Q9UBN7 1-1215): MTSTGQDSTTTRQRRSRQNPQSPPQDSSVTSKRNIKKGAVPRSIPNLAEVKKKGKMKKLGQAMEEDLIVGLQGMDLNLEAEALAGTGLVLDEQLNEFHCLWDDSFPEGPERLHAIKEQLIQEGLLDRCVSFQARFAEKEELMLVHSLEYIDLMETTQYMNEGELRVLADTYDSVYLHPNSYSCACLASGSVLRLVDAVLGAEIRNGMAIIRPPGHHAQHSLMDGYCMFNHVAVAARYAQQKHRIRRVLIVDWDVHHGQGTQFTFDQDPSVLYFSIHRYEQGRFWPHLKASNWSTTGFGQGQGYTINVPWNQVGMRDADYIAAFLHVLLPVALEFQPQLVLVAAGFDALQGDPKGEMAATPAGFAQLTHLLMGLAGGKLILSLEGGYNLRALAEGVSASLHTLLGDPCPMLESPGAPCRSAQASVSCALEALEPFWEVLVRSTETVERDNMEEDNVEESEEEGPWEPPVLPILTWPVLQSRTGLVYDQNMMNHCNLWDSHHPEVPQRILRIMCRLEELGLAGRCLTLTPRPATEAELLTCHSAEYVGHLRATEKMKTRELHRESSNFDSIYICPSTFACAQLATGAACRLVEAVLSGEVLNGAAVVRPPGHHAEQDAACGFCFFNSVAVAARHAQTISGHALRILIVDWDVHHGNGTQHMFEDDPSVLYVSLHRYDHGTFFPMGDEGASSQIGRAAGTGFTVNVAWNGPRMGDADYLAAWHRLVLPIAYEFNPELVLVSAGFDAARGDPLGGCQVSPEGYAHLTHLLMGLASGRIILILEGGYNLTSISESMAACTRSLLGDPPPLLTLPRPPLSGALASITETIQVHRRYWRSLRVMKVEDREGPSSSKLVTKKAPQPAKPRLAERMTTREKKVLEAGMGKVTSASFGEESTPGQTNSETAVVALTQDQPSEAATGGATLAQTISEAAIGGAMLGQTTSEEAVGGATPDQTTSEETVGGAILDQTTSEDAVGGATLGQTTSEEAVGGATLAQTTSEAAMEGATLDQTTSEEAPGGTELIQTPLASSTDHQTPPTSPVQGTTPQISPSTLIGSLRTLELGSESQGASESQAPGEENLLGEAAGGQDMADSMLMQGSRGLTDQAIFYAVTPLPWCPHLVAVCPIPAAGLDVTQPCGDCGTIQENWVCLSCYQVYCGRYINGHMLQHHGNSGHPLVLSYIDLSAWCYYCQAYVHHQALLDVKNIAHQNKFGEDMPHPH
How it is done: as §1, §2, §3

The next assay concerns the target T3, HDAC7 (Homo sapiens, UniProt Q8WUI4).
T3 sequence (Q8WUI4 1-952): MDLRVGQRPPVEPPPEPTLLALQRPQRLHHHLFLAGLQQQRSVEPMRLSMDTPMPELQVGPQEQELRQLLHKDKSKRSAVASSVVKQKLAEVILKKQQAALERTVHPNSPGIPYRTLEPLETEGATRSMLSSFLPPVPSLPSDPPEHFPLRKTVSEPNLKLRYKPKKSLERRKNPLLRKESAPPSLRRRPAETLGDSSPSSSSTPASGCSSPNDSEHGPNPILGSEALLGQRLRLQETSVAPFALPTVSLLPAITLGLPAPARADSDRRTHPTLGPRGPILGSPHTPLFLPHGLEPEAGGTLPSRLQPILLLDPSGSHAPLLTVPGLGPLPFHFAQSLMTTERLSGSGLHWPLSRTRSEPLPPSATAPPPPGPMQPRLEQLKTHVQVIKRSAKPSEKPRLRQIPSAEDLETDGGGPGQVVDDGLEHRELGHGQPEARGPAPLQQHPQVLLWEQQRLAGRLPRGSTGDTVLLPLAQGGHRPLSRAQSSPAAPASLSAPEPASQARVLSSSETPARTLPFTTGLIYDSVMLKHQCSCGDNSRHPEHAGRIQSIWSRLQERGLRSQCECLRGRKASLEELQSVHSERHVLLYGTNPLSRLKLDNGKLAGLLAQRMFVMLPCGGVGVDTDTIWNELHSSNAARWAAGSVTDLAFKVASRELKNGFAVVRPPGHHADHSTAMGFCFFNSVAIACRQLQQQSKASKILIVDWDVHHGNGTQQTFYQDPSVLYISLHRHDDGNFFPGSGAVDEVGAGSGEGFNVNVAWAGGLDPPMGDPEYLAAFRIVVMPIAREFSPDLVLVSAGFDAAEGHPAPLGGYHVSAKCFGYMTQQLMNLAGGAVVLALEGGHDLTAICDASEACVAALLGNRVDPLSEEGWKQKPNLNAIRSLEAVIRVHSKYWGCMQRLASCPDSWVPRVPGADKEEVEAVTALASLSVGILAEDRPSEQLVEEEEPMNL
How it is done: as §1, §2, §3

The target of another assay is HDAC1 (Homo sapiens, UniProt Q13547). How it is done:
as §1, §2, §3

The target in the next assay is T4, HDAC8 (Homo sapiens, UniProt Q9BY41).
T4 sequence (Q9BY41 1-377): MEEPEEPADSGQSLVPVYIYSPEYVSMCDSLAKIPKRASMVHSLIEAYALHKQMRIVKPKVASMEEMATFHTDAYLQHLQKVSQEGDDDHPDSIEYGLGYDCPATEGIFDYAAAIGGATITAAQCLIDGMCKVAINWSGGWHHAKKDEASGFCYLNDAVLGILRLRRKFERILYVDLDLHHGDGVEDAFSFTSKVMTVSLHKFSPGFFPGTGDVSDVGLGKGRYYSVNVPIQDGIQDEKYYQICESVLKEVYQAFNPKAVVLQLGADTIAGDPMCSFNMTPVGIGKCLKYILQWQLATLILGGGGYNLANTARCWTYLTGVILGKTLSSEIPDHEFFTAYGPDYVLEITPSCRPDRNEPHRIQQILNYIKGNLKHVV
How it is done:
as §1, §2, §3

[1] abbreviates: HDAC-like amidohydrolase, ε-acetylated lysine substrate, trypsin release of 7-amino-4-methylcoumarin, four parameter fit, read-out: IC50 values HDAH.
Where [2] appears, read: ε-acetylated lysine substrate, trypsin release of 7-amino-4-methylcoumarin, four parameter fit, read-out: IC50 values HDAC6.
[3] abbreviates: ε-acetylated lysine substrate, trypsin release of 7-amino-4-methylcoumarin, four parameter fit, read-out: IC50 values HDAC7.
Where [4] appears, read: ε-acetylated lysine substrate, trypsin release of 7-amino-4-methylcoumarin, four parameter fit, read-out: IC50 values HDAC1.
Where [5] appears, read: ε-acetylated lysine substrate, trypsin release of 7-amino-4-methylcoumarin, four parameter fit, read-out: IC50 values HDAC8.

HDAC1, sequence (Q13547 whole entry): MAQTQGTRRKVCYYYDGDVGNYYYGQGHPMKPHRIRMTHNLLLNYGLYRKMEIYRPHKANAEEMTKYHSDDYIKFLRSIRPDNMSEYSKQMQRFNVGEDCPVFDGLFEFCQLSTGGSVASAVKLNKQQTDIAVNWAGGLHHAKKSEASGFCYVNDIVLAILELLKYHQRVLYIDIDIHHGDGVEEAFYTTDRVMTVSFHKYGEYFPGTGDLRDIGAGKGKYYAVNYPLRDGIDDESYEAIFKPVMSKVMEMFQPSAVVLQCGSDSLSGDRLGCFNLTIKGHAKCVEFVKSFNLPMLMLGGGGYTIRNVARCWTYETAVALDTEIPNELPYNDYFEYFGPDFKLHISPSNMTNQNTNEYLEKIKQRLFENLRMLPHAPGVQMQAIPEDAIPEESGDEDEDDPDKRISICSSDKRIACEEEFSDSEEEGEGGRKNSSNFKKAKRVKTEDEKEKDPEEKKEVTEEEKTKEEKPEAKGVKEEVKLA

By IC50 is commonly meant the concentration that inhibits the measured activity by half. Regarding `O=C(NO)C(F)(F)C(F)(F)C(F)(F)C(F)(F)C(F)(F)C(F)(F)C(=O)Nc1nc(-c2ccccc2)cs1` [LU235, 2,2,3,3,4,4,5,5,6,6,7,7-Dodecafluorooctanedioic acid hydroxyamide (4-phenylthiazol-2-yl)amide], the IC50 on HDAH (setting [1]) was 5.11 µM; on HDAC6 (setting [2]), 6.47 µM; on HDAC7 (setting [3]) it was 1.77 µM; at HDAC1 (setting [4]), 3.31 µM; at HDAC8 (setting [5]) it was 2.1 µM.
For `O=C(NO)C(F)(F)C(F)(F)C(F)(F)C(F)(F)C(F)(F)C(F)(F)C(=O)Nc1ccc(-c2cnnn2-c2ccccc2)cc1` [LU236, 2,2,3,3,4,4,5,5,6,6,7,7-Dodecafluorooctanedioic acid hydroxyamide [4-(1-phenyl-1H-[1,2,3]triazol-5-yl)phenyl]amide], the IC50 at HDAH (setting [1]) was 10.4 µM; on HDAC6 (setting [2]), 56.6 µM; on HDAC7 (setting [3]), 16.4 µM; at HDAC1 (setting [4]) it was 83.1 µM; against HDAC8, more than 100 µM.
Regarding `O=C(NO)C(F)(F)C(F)(F)C(F)(F)C(F)(F)C(F)(F)C(F)(F)C(=O)Nc1ccc(-c2cn(-c3ccccc3)nn2)cc1` [LU 233, 2,2,3,3,4,4,5,5,6,6,7,7-Dodecafluorooctanedioic acid hydroxyamide {4-[1-phenyl-1H-(1,2,3)triazol-4-yl]phenyl}amide], the IC50 at HDAH (setting [1]) is 16.9 µM; at HDAC6 (setting [2]) it was 9.81 µM; on HDAC7 (setting [3]), 42.2 µM; at HDAC1 (setting [4]) it was more than 100 µM; at HDAC8 (setting [5]), more than 100 µM.
With `O=C(NO)C1CCCCC1C(=O)Nc1ccccc1` (centres unmarked) [RK216, reference compound], the 50% inhibitory concentration (IC50) was 34.8 µM on HDAH; 44 µM at HDAC6; more than 100 µM against HDAC7; more than 100 µM at HDAC1; more than 100 µM on HDAC8.
